Measured values reported in article PMC12498271, “A First-In-Human Dose-Escalation Phase I Study of Basroparib, a Tankyrase Inhibitor, in Patients with Advanced-Stage Solid Tumors” (Cancer Research Communications, 2025).
Entries after “also recorded” stand apart in the source; their conditions may differ. Read-outs that look alike come from different tables or passages of the source. Marks after values point to notes of the source that are not given here.

Experiments:
[1] = phase I plasma pharmacokinetics (HPLC-MS/MS, non-compartmental); type: in vivo, human; conditions: for Tmax,ss: median (min, max)
Procedure: Blood samples for PK analysis were collected with K2EDTA tubes in serial before dose and at 0.25, 0.5, 1, 1.5, 2, 3, 4, 6, 8, 12, and 24 hours after dose on cycle 1 day 1 and before dose and at 1, 2, 3, 4, and 6 hours after dose on cycle 1 day 8 and before dose on days 1 and 15 of cycle 2 and beyond. Plasma concentrations of basroparib and its major metabolite, STP06-1007, were determined using the validated high-performance liquid chromatography/tandem mass spectrometry method at the bioanalytic laboratory (Celerion, Inc.). The analytic range (lower limit of quantitation – upper limit of quantitation) for basroparib and STP06-1007 was 0.05 to 250 ng/mL. Non-compartmental PK parameters were calculated using Phoenix WinNonlin version 8.4.0 (Certara).

[2] = phase I dose escalation: safety and tolerability (NCI CTCAE v5.0); type: in vivo
Procedure: This study was a phase I, open-label, dose-escalation, multicenter trial conducted in patients with advanced-stage solid tumors in three clinical sites located in the United States. A classic “3 + 3” method was utilized for patient enrollment starting from cohort 1 (30 mg) up to cohort 7 (360 mg). In each cohort, patients were given basroparib capsules orally once daily on a 21-day treatment period, followed by a 7-day off period in 28-day cycles until there seemed evidence of progressive disease, intolerable toxicity, or discontinuation or withdrawal for other reasons. A safety monitoring committee (SMC) composed of the principal investigators, sponsor’s representatives, and designated medical monitor reviewed the safety, tolerability, and PK of each dose level and delivered consensus decisions for dose escalations, maximum tolerated dose (MTD), and recommended phase II dose (RP2D). Study objectives and endpoints are provided in Supplementary Table S1.
Adverse events (AE) and toxicity severity were evaluated according to the National Cancer Institute (NCI) Common Terminology Criteria for Adverse Events version 5.0. The dose-limiting toxicities were defined as any of the following AEs that are possibly, probably, or definitely related to the study drug occurring during cycle 1 (28 days): any death not clearly due to the underlying disease or extraneous causes; neutropenic fever; grade 4 or higher neutropenia or thrombocytopenia over 7 days; grade 3 or higher thrombocytopenia with clinically significant bleeding; for patients with hepatic metastases, aspartate aminotransferase (AST) or alanine aminotransferase (ALT) >8-fold of the upper limit of normal range (ULN) or AST or ALT >5-fold of ULN for 14 days or longer; for patients with hepatic metastases, grade 3 or higher elevation in AST and/or ALT >5-fold of ULN of any duration; and AST or ALT >3-fold of ULN and concurrent total bilirubin >2-fold of ULN of any duration without initial findings of cholestasis (elevated alkaline phosphatase, e.g., findings consistent with the Hy law or US Food and Drug Administration definition of potential study drug–induced liver injury). Medical Dictionary for […] version 26.1 was used for safety coding.

[3] = xenograft disease model in mouse; cited from earlier work
[4] = GLP toxicology study in rat; cited from earlier work
[5] = test system: colorectal cancer xenograft models using APC-mutant cell lines and patient-derived colorectal cancer cells; conditions: monotherapy; cited from earlier work
[6] = test system: TNKS1; conditions: read-out: active against TNKS1; cited from earlier work
[7] = Day 8, Cohort 7 (360 mg, once daily) N = 4, geometric mean (geometric CV%)
[8] = basroparib, 180 to 240 mg dose levels
[9] = day 1, patient 01-002, Cohort 2, 60 mg once daily
[10] = day 1, patient 01-007, Cohort 6, 300 mg once daily
[11] = day 1, patient 02-002, Cohort 4, 180 mg once daily
[12] = day 1, patient 03-012, Cohort 6, 300 mg once daily
[13] = day 1, three of four patients with stable disease
[14] = day 8 (steady state), patient 01-002, Cohort 2, 60 mg once daily
[15] = day 8 (steady state), patient 01-007, Cohort 6, 300 mg once daily
[16] = day 8 (steady state), patient 02-002, Cohort 4, 180 mg once daily
[17] = day 8 (steady state), patient 03-012, Cohort 6, 300 mg once daily

Question: With `COCCOc1cc(F)c(N2CCN(c3nc4c(nnn4C)c(=O)[nH]3)CC2)c(F)c1` [basroparib] as the molecule, how does the “Tmax,ss” value ([1]; Day 8, Cohort 5 (240 mg, once daily) N = 3) read?
Answer: 3.0 (3, 4) hours

Question: And the “Cmax,ss” value ([1]; Day 8, Cohort 6 (300 mg, once daily) N = 3, geometric mean (geometric CV%))?
Answer: 2,933.8 (79.18) ng/mL

Question: What about the “Tmax,ss” value ([1]; Day 8, Cohort 6 (300 mg, once daily) N = 3) of the same molecule?
Answer: 3.0 (2, 4) hours

Question: And the “AUC0–6,ss” value ([1]; Day 8, Cohort 6 (300 mg, once daily), two patients, geometric mean (geometric CV%))?
Answer: 16,803.6 (10.54)^a hours × ng/mL

Question: And the “AUC0–6,ss” value [1, 7]?
Answer: 7,472.7 (103.39) hours × ng/mL

Question: What about the “Cmax,ss” value [1, 7] of the same molecule?
Answer: 2,289.7 (70.09) ng/mL

Question: And the “Tmax,ss” value ([1]; Day 8, Cohort 7 (360 mg, once daily) N = 4)?
Answer: 4.0 (2, 6) hours

Question: What about the “mean half-life (t1/2)” value ([1]; all dose levels except the 60 mg dose) of the same molecule?
Answer: 6 to 9 h

Question: What about the “time to Cmax (median)” value ([1]; all dose levels, day 1 and day 8 (steady state), oral) of the same molecule?
Answer: 3 to 4 h

Question: What about the “change in AUC0–6 on day 8 compared with day 1” value [1, 8] of the same molecule?
Answer: 1.4- to 1.7 fold

Question: And the “change in Cmax on day 8 compared with day 1” value [1, 8]?
Answer: 1.2- to 1.6 fold

Question: What about the “AUC0–6” value [1, 9] of the same molecule?
Answer: 3,050 hours × ng/mL

Question: What about the AUClast [1, 9] of the same molecule?
Answer: 4,960 hours × ng/mL

Question: What about the Cmax [1, 9] of the same molecule?
Answer: 883 ng/mL

Question: And the “AUC0–6” value [1, 10]?
Answer: 15,900 hours × ng/mL

Question: What about the AUClast [1, 10] of the same molecule?
Answer: 47,800 hours × ng/mL

Question: And the Cmax [1, 10]?
Answer: 3,890 ng/mL

Question: What about the “AUC0–6” value [1, 11] of the same molecule?
Answer: 16,300 hours × ng/mL

Question: What about the AUClast [1, 11] of the same molecule?
Answer: 40,600 hours × ng/mL

Question: And the Cmax [1, 11]?
Answer: 4,130 ng/mL

Question: And the “AUC0–6” value [1, 12]?
Answer: 20,800 hours × ng/mL

Question: What about the AUClast [1, 12] of the same molecule?
Answer: 32,000 hours × ng/mL

Question: What about the Cmax [1, 12] of the same molecule?
Answer: 6,050 ng/mL

Question: What about the AUClast [1, 13] of the same molecule?
Answer: > 32,000 hours × ng/mL

Question: What about the Cmax [1, 13] of the same molecule?
Answer: > 3,890 ng/mL

Question: And the “AUC0–6” value ([1]; day 1 and day 8, three of four patients with stable disease)?
Answer: > 15,000 hours × ng/mL

Question: And the “AUC0–6,ss” value [1, 14]?
Answer: 3,200 hours × ng/mL

Question: And the “Cmax,ss” value [1, 14]?
Answer: 744 ng/mL

Question: And the “AUC0–6,ss” value [1, 15]?
Answer: 15,600 hours × ng/mL

Question: What about the “Cmax,ss” value [1, 15] of the same molecule?
Answer: 3,820 ng/mL

Question: What about the “AUC0–6,ss” value [1, 16] of the same molecule?
Answer: 27,300 hours × ng/mL

Question: What about the “Cmax,ss” value [1, 16] of the same molecule?
Answer: 6,640 ng/mL

Question: What about the “AUC0–6,ss” value [1, 17] of the same molecule?
Answer: 18,100 hours × ng/mL

Question: And the “Cmax,ss” value [1, 17]?
Answer: 4,970 ng/mL

Question: And the “increase of Cmax and AUCs with dose” value ([1]; dose increase up to 300 mg)?
Answer: less than proportionally; also recorded: less than proportional

Question: And the “TRAEs in musculoskeletal and connective tissue disorders” value ([2]; all dose levels)?
Answer: No TRAEs in musculoskeletal and connective tissue disorders were observed

Question: What about the “grade 5 (fatal) TRAEs” value ([2]; all dose levels) of the same molecule?
Answer: not observed; also recorded: No grade 5 TRAEs were reported

Question: And the “maximum tolerated dose (MTD)” value ([2]; human, in vivo, po)?
Answer: 360 mg

Question: What about the “TRAE fatigue, frequency” value ([2]; in vivo) of the same molecule?
Answer: 28%

Question: And the “TRAE lymphocyte count decrease, frequency” value ([2]; in vivo)?
Answer: 8%

Question: What about the “TRAE nausea, frequency” value ([2]; in vivo) of the same molecule?
Answer: 12%

Question: What about the “dual-energy x-ray absorptiometry, changes in paired T-score and Z-score” value ([2]; in vivo) of the same molecule?
Answer: did not show any clinically meaningful changes

Question: And the “patients with at least one treatment-emergent AE” value ([2]; in vivo)?
Answer: 96%

Question: And the “serious AEs considered possibly related to basroparib” value ([2]; in vivo)?
Answer: two

Question: What about the “treatment-emergent AEs classified as grade 1” value ([2]; in vivo) of the same molecule?
Answer: 50%

Question: And the “treatment-emergent AEs classified as grade 2” value ([2]; in vivo)?
Answer: 33.7%

Question: And the “recommended phase II dose (RP2D)” value ([2]; in vivo, po)?
Answer: 360 mg

Question: What about the GI toxicity [3] of the same molecule?
Answer: has not been seen inducing any GI toxicity

Question: And the GI toxicity [4]?
Answer: has not been seen inducing any GI toxicity

Question: What about the tumor growth inhibition [5] of the same molecule?
Answer: ≤ 64%

Question: What about the IC50 [6] of the same molecule?
Answer: 5.8 nM
